Results taken from PubChem BioAssay (NCI).
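48-hour exposure; five concentrations; linearly interpolated endpoints. Here, GI50 denotes the concentration required for 50% inhibition of growth. TGI is the concentration that stops growth completely.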

System: MDA-MB-468 breast
Assay: DTP human tumour cell line panel, 48 h

SMILES	GI50	TGI
COCCn1cc(-c2csc(-c3c[nH]c4ccccc34)n2)c2cccnc21	0.974 µM	6.68 µM
C=C1C(=O)O[C@H]2[C@H]1CC/C(COC(=O)NCc1cc3ccccc3[nH]1)=C\CC[C@@]1(C)O[C@@H]21	1.06 µM	3.4 µM
C[C@]12CCC3[C@@H](C[C@@H]4SC(Nc5ccccc5)=N[C@@]45CC(=O)CC[C@]35C)[C@@H]1CCC2=O (stereo partly specified)	3.59 µM	14.6 µM
CCN(CC)c1ccc(/C=C\c2cc(C)c3cc(C)ccc3n2)cc1	3.02 µM	20.3 µM
NC(=O)c1cnc(N[C@@H]2CCCC[C@@H]2N)nc1Nc1cccc(-n2nccn2)c1	3.27 µM	11.5 µM
C(=N\Nc1ccccn1)/c1ccccn1	0.237 µM	0.748 µM
Cc1ccc(C(CN(C)C)C(=O)c2ccccc2)cc1 (stereo unspecified)	1.32 µM	3.61 µM
CC(C)(C)N1CCC1C(N)=O (stereo unspecified)	> 100 µM	> 100 µM
N#Cc1c(C(=O)c2ccccc2)cnn1-c1ccccc1	> 25 µM	> 25 µM
C#Cc1cccc(Nc2ncnc3cc(OCCOC)c(OCCOC)cc23)c1	0.124 µM	2.81 µM
CN(C)CCCn1c2c(c3cnccc3c1=O)C(=O)c1ccccc1-2	0.352 µM	2.54 µM
OCc1cn(Cc2cccc(Cl)c2)c2ccccc12	0.0134 µM	0.0333 µM
Cc1ccc(C(=O)Nc2ccc(CN3CCN(C)CC3)c(C(F)(F)F)c2)cc1C#Cc1cnc(N)cc1C#N	0.399 µM	1.23 µM
C1CC[N-]CC1.C1CC[N-]CC1.C1CC[N-]CC1.C1CC[N-]CC1.[Cl][Rh][Cl]	2.17 µM	15.3 µM
CC12CCC3C(CC=C4CC(O)CCC43C)C1C/C(=C\N1CCCC1)C2=O (stereo unspecified)	51.2 µM	> 100 µM
CCCCn1c2cc(OCc3cn(-c4ccc(Cl)cc4)nn3)ccc2c2ccnc(C)c21	5.23 µM	> 33.3 µM
COc1ccc(-c2cc(-c3ccc(OC)c(OC)c3)nc(SCCCC(=O)NO)n2)cc1	1.18 µM	3.44 µM
C=C1[C@@H](C)[C@H]2[C@H](Cc3ccccc3)NC(=O)[C@]23OC(=O)/C=C/[C@H](O)CCC[C@@H](C)C/C=C/[C@H]3[C@@H]1O	1.86 µM	> 100 µM
